Data set [1] can be described thus: Dog screening IV/PO pharmacokinetics. In kind it is in vivo. As to conditions: male, plasma, mean residence time, IV/PO procedure. The procedure:
Plasma pharmacokinetic parameters for clearance, volume of distribution, half-life, mean residence time (MRT) and oral bioavailability were determined in dogs from oral administration and IV administration studies. 4 male dogs, typically weighing 8-12 kilograms, were fasted overnight prior to dosing. Compounds were prepared for oral and IV dosing by addition to a vehicle, depending on the dose used. For a typical preparation, 1 mg per mL (IV) or 1.5 mg per mL (oral) of test compound was added to vehicle comprised of 20% dimethyl sulfoxide (DMSO), 60% polyethylene glycol 400 (PEG400) and 20% water. IV formulation was administered to 2 dogs via the saphenous or cephalic vein, and oral dosing was administered to 2 dogs via oral gavage. Blood was collected by the cephalic or jugular vein, typically at predose, 2 min, 8 min, 15 min, 30 min, and 1, 2, 4, 6, 8 and 24 hr postdose for IV, and at predose, 15 min, 30 min, and 1, 2, 4, 6, 8, and 24 hr for oral dosing. Samples were collected in K2EDTA tubes, stored on ice, and centrifuged. Plasma was transferred to a micro titer plate and stored at −70° C. until analysis. Plasma samples were extracted using protein precipitation and analyzed by liquid chromatography separation followed by mass spec detection (LCMS/MS), using a standard curve for each compound. Plasma pharmacokinetic parameters were calculated for IV and oral dosing data by non-compartmental methods. Oral bioavailability was determined as the ratio of the dose-normalized plasma area under the curve (AUC) following oral dosing vs. IV dosing.

Data set [2] concerns the target human tissue kallikrein (Homo sapiens (Human), UniProt P06870). The data set can be described thus: Inhibition of tissue kallikrein enzymatic activity (tKal). In kind it is biochemical. Conditions: human tissue kallikrein 5 nM, N-acetyl-KPR-AFC substrate, 25° C. As for the experimental part:
Compounds were assayed with human tissue kallikrein (RayBiotech, Cat #228-10996 or Evotec, final concentration 5 nM) in 50 mM HEPES, 150 mM NaCl, 5 mM CaCl2, 0.1% PEG pH 7.4 at 25° C. in a Corning 3575 non-binding surface microplate. Compounds were tested in 10-point dose titrations starting at 166.67 uM with a 3-fold dilution series. Tissue kallikrein enzymatic activity was determined by measuring the rate of cleavage of N-acetyl-KPR-AFC substrate (Sigma, Cat #C6608, final concentration 100 uM) by continuously monitoring the fluorescence at 400/505 nm using a Tecan Safire plate-reader. The initial reaction rates (0 to 20 minutes) were used to determine percent inhibition. The % Inhibition for each data point was recalculated from the RFU/min data and analyzed using the log(inhibitor) vs. response four parameters equation with the GraphPad Prism software.

In data set [3] the target is Human plasma kallikrein (Homo sapiens (Human), UniProt P03952). The data set can be described thus: Kallikrein assay (plasma kallikrein, pKal). Conditions: purified Human plasma kallikrein 0.5 nM, Acetyl-K-P-R-AFC substrate. The data set is classed as biochemical. The procedure: The effectiveness of a compound of the present invention as an inhibitor of Kallikrein can be determined using a relevant purified serine protease, and an appropriate synthetic substrate. The rate of hydrolysis of the chromogenic or fluorogenic substrate by the relevant serine protease was measured both in the absence and presence of compounds of the present invention. Assays were conducted at room temperature or at 37° C. […] A decrease in the rate of fluorescence change in the presence of inhibitor is indicative of enzyme inhibition. Such methods are known to one skilled in the art. […] Determinations were made using purified Human plasma kallikrein at a final concentration of 0.5 nM (Enzyme Research Laboratories) and the synthetic substrate, Acetyl-K—P—R-AFC (Sigma #C6608) at a concentration of […].
Activity assays were performed by diluting a stock solution of substrate at least tenfold to a final concentration ≤0.2 Km into a solution containing enzyme or enzyme equilibrated with inhibitor. Times required to achieve equilibration between enzyme and inhibitor were determined in control experiments. The reactions were performed under linear progress curve conditions and fluorescence increase measured at 405 Ex/510 Em nm. Values were converted to percent inhibition of the control reaction (after subtracting 100% Inhibition value). IC50 was determined by inflection point from a four parameter logistic curve fit. Ki was calculated using the Cheng Prusoff equation, Ki=IC50/(1+([S]/Km)).

A short description of data set [4]: Dog cassette IV pharmacokinetics. The data set is classed as in vivo. As to conditions: male, plasma, mean residence time, cassette IV procedure. As for the experimental part:
Plasma pharmacokinetic parameters for clearance, volume of distribution, half-life, and mean residence time (MRT) were determined in dogs from IV cassette administration studies. 2 male dogs, typically weighing 8-12 kilograms, were fasted overnight prior to dosing. Compounds were prepared for IV dosing by addition to a vehicle, depending on the dose used. For a typical preparation, 1 mg per mL (IV) of up to 5 test compounds were added to vehicle comprised of 20% dimethyl sulfoxide (DMSO), 60% polyethylene glycol 400 (PEG400) and 20% water. IV formulation was administered to 2 dogs via the saphenous or cephalic vein. Blood was collected by the cephalic or jugular vein, typically at predose, 2, 8, 15, 30 min, 1, 2, 4, 6, 8 and 24 hr postdose. Samples were collected in K2EDTA tubes, stored on ice, and centrifuged. Plasma was transferred to a micro titer plate and stored at −70° C. until analysis. Plasma samples were extracted using protein precipitation and analyzed by liquid chromatography separation followed by mass spec detection (LCMS/MS), using a standard curve for each compound. Plasma pharmacokinetic parameters were calculated by non-compartmental methods.

The record followed here is patent publication US12344616B2, “Factor XIa inhibitors” (Merck Sharp & Dohme LLC, priority 2018, dated 2025).

As a reminder, the MRT is the average time that molecules of a dose stay in the body. By IC50 is commonly meant the concentration that inhibits the measured activity by half. A higher IC50 goes with a need for much substance.

Chain of human tissue kallikrein (P06870 25-262): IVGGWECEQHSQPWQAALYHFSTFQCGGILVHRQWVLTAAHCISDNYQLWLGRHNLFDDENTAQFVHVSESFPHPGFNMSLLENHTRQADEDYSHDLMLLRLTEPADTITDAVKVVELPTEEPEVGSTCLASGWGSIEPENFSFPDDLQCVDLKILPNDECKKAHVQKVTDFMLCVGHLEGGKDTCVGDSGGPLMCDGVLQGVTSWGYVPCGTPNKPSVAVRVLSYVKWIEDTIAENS
Chain of Human plasma kallikrein (P03952 391-638): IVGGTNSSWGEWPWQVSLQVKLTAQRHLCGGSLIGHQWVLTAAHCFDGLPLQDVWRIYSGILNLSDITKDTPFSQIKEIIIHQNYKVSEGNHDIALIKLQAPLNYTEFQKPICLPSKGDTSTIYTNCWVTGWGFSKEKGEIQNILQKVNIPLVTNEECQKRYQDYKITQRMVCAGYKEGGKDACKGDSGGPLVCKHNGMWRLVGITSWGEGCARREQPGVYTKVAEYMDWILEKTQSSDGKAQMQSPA
Chain of Human plasma kallikrein (P03952 20-390 partner): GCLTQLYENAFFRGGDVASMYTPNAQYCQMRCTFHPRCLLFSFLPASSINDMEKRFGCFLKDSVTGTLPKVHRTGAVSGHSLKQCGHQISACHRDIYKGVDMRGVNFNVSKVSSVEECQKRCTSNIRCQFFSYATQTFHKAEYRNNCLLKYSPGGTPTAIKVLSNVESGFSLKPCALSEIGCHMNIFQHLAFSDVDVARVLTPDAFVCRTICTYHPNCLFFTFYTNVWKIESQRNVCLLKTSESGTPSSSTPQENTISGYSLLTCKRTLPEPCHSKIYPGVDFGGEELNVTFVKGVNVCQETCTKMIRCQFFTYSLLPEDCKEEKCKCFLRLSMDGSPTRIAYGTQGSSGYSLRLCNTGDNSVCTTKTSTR

In data set [1], `COC(=O)Nc1ccc2c(c1)NC(=O)C(C)(C)CCC[C@H](c1ccc(-c3c(-n4cc(C(F)(F)F)cn4)ccc(F)c3F)c[n+]1[O-])c1nc-2c(C)[nH]1` [Example 1, (R,Z)-5-(2,3-difluoro-6-(4-(trifluoromethyl)-1H-pyrazol-1-yl)phenyl)-2-(2^4-((methoxycarbonyl)amino)-1^5,5,5-trimethyl-4-oxo-1^1H-3-aza-1(4,2)-imidazola-2 (1,2)-benzenacyclononaphane-9-yl)pyridine 1-oxide] registered a mean residence time MRT of 10 h. Moreover, the IC50 in data set [2] is above 167000 nM; in data set [3], 480 nM.

Compound `COC(=O)Nc1ccc2c(c1)NC(=O)C(C)(C)CCC[C@H](c1ccc(-c3cc(Cl)ccc3-n3cc(C(F)F)cn3)c[n+]1[O-])c1nc-2c(C)[nH]1` [Example 4, (R,Z)-5-(5-chloro-2-(4-(difluoromethyl)-1H-pyrazol-1-yl)phenyl)-2-(2^4-((methoxycarbonyl)amino)-1^5,5,5-trimethyl-4-oxo-1^1H-3-aza-1(4,2)-imidazola-2(1,2)-benzenacyclononaphane-9-yl)pyridine 1-oxide] came in with a mean residence time (MRT) in data set [1] of 8.7 h. Besides, the IC50 was above 167000 nM in data set [2] and 46 nM in data set [3].

On to `COC(=O)Nc1ccc2c(c1)NC(=O)C(C)(C)CCC[C@H](c1ccc(-c3cc(F)ccc3-n3cc(C(F)(F)F)cn3)c[n+]1[O-])c1nc-2c(C)[nH]1` [Example 2, (R.Z)-5-(5-fluoro-2-(4-(trifluoromethyl)-1H-pyrazol-1-yl)phenyl)-2-(2^4-((methoxycarbonyl)amino)-1^5,5,5-trimethyl-4-oxo-1^1H-3-aza-1(4,2)-imidazola-2(1,2)-benzenacyclononaphane-9-yl)pyridine 1-oxide], for which, in data set [1], the MRT was determined as 11 h. Moreover, the results for the IC50 in data set [2] and in data set [3] were 90000 nM and 1080 nM, respectively.

The compound `COC(=O)Nc1ccc2c(c1)NC(=O)C(C)(C)CCC[C@H](c1ccc(-c3cc(F)ccc3-c3cnn(C(F)(F)F)c3)c[n+]1[O-])c1nc-2c(C)[nH]1` [Example 5, (R,Z)-5-(5-fluoro-2-(1-(trifluoromethyl)-1H-pyrazol-4-yl)phenyl)-2-(2^4-((methoxycarbonyl)amino)-1^5,5,5-trimethyl-4-oxo-1^1H-3-aza-1(4,2)-imidazola-2(1,2)-benzenacyclononaphane-9-yl)pyridine 1-oxide] yielded an MRT in data set [1] of 10 h. Moreover, the IC50 in data set [2] was above 167000 nM; in data set [3], 371 nM.

`COC(=O)Nc1ccc2c(c1)NC(=O)C(C)(C)CCC[C@H](c1ccc(-c3cc(Cl)cnc3OC(F)F)c[n+]1[O-])c1nc-2c(C)[nH]1` [Example 6, (R,Z)-5′-chloro-2′-(difluoromethoxy)-6-(2^4-((methoxycarbonyl)amino)-1^5,5,5-trimethyl-4-oxo-1^1H-3-aza-1(4,2)-imidazola-2(1,2)-benzenacyclononaphane-9-yl)-[3,3′-bipyridine]1-oxide] showed an MRT in data set [1] of 14.5 h. The same compound had an IC50 in data set [3] of 443 nM.

Turning to `COC(=O)Nc1ccc2c(c1)NC(=O)C(C)(C)CCC[C@H](c1ccc(-c3cc(Cl)ccc3-n3cc(C(F)(F)F)cn3)c[n+]1[O-])c1nc-2c(C)[nH]1` [Example 3], the IC50 was above 167000 nM in data set [2] and 42 nM in data set [3]. This compound also gave an MRT in data set [4] of 10 h.
